Earlier results, collected in US20120003311A9, “METHOD FOR CONTROLLED RELEASE OF AN ACID-UNSTABLE PHYSIOLOGICALLY ACTIVE SUBSTANCE” (EISAI R&D MANAGEMENT CO., LTD., priority 2004, published 2012).

How the values were obtained:
[1] = descending colon vs jejunum

absorption rate in the descending colon as percentage of that of the jejunum [1] | SMILES | half-life at pH 7
≤ 20% | COCCCOc1ccnc(C[S+]([O-])c2nc3ccccc3[nH]2)c1C (centres unmarked) [rabeprazole sodium] | –
– | COc1ccnc(C[S+]([O-])c2nc3cc(OC(F)F)ccc3[nH]2)c1OC (centres unmarked) [pantoprazole] | 39 hours
